Data on two compounds can be found in patent publication US20090069429A1 (SGP & SONS AB, priority 2006, published 2009).

Experiment [1] concerns soleus muscles. The settings on record: 48-h T3 subcutaneously; 90 Hz continuous stimulation; cited from earlier work.
In experiment [2] the test system is slow-twitch soleus muscle. Kind of experiment: Contractile endurance and force of isolated soleus muscle from rats given AKG, continuous electrical stimulation at 40 Hz. It is filed as in vivo, rat. As for the experimental part:
FIG. 4 presents contracting characteristics of soleus muscles in uremic rats +test component (n=10), control rats+placebo (n=8), control rats+test component (n=4) incubated in Krebs Ringer physiological solution (30 min. incubation) and electrically stimulated at 40 Hz (32 mA, 1 ms, <90V).
(§1) Animals were kept in a thermostatically controlled chamber, containing the equipment to measure contractile force in isolated rat skeletal muscle, i.e. a computer, analogue-digital transducer, amplifier, differential amplifier, stimulator, […] and 5% carbon dioxide.
(§2) Thermostatically controlled chamber, maintained at 30° C., contained a glass diffuser for efficient oxygenation of buffer, a mounting/stimulation block with 2 pins to fix portion of fibula in place and 2 silver stimulating electrodes.

The test system of experiment [3] is fast-twitch extensor digitorum longus muscle (EDL). Kind of experiment: Contractile endurance and force of isolated extensor digitorum longus muscle from rats given AKG, continuous electrical stimulation at 90 Hz. It is filed as in vivo, rat. The procedure:
FIG. 5 presents contracting characteristics of extensor digitorum longus muscle in uremic rats+test component (n=3) and control rats+test component (n=2) incubated in Krebs Ringer solution and uremic rats+test component (n=3) incubated in Uremic Buffer (30 min.), 90 Hz, 1 ms and <90V.
as §1, §2

The subject of experiment [4] is muscle. Kind of experiment: Muscle performance after oral AKG (general conclusions). It is filed as in vivo, rat. The procedure: as §1, §2
Where [5] appears, read: AKG-administered uremic rats, Krebs Ringer vs Uremic buffer incubation.

SMILES strings stand for the structures. Entries after “also recorded” stand apart in the source; their conditions may differ. Where only a bound is given, the exact number is not on record here.

For the compound `N[C@@H](Cc1cc(I)c(Oc2ccc(O)c(I)c2)c(I)c1)C(=O)O` [T3, 3,5,3′-triiodothyronine], the “rate of fatigue of soleus muscle” value in experiment [1] is “rapid rate of fatigue”.
For `O=C(O)CCC(=O)C(=O)O` [AKG, alpha-ketoglutarate], the “endurance profile of soleus muscle (buffer effect)” value in experiment [2] (setting [5]) is listed as “better endurance profile”. The “endurance of soleus muscles” value in experiment [2] (control rats given AKG vs placebo, incubated in Krebs Ringer) was “improves the endurance; also recorded: improved endurance”. Also, the “slowing of Rate of Force Generation” value in experiment [2] (slow-twitch muscles, oral treatment 21 days or less) is on record as about 130%; in experiment [3] (fast-twitch muscles, oral treatment 21 days or less), about 8.5%. In addition, the “Maximal Isometric Force improvement” value in experiment [2] (slow-twitch muscles, oral treatment 21 days or less, vs untreated controls) is 12%; in experiment [3] (fast-twitch muscles, oral treatment 21 days or less, vs untreated controls), 28%. For the same compound, in experiment [3] (AKG administered uremic rats vs placebo administered uremic rats), the “endurance performance of extensor digitorum longus muscle” value is “improved performance”. Also, the “endurance profile of extensor digitorum longus muscle (buffer effect)” value in experiment [3] (setting [5]) was “better endurance profile”. Moreover, the “effect on muscle performance in terms of endurance during sustained contraction” value in experiment [4] (AKG administration) is reported as “beneficial effect”. Also, in experiment [4] (oral AKG), the “peripheral fatigue during sustained contraction at normal working frequency” value is given as “reduce”. The “period within which muscle function improves” value in experiment [4] (oral preparation) is reported as at most 21 days.
